Test results published in patent US20110262407A1, “TREATMENT WITH ALPHA7 SELECTIVE LIGANDS” (Targacept, Inc., priority 2008, published 2011).
Read-outs that look alike come from different tables or passages of the source.

How the values were obtained:
[1] = test system: hippocampal progenitor cells; settings: for magnitude of increase in proliferation of hippocampal progenitor cells: oral gavage, vs vehicle; for proliferation of progenitor cells in the hippocampus: 129SvEv mice
From the text: Since new neurons develop from the progenitor cells in the hippocampus, measuring the proliferation of this cell population may be used as an indicator of the full neurogenesis process. Hippocampal neurogenesis can be evaluated by measuring the incorporation of deuterium from heavy water into the DNA of progenitor cells and the rate of label incorporation reflects the rate of cellular proliferation. Fluoxetine, a known neurogenic antidepressant, was used as the positive control and as a comparator to the nicotinic ligands.
Mice were labeled for the last 10-11 days of the drug treatment period. Tissue processing and analysis: At the end of treatment and label, mice were sacrificed, the hippocampus was dissected from the brain and digested with papain and progenitor cells were isolated by Percoll fractionation. DNA was purified from the isolated progenitor cells using a DNEasy tissue kit (Qiagen, Valencia, Calif.), then processed and analyzed by GC/MS. DNA was enzymatically hydrolyzed to free deoxyribonucleosides, and the deoxyribose moiety of purine deoxyribonucleosides was converted to the pentafluorobenzyl triacetate derivative. […] Incorporation of ^2H into purine deoxyribose was quantified as the molar excess fraction M1 (EM1), i.e. the increase over natural abundance (background), determined from the fractional M1 value in unlabeled DNA standards from calf thymus.
Concurrent analysis of DNA from bone marrow cells, which are fully turned over in 1 week provides an internal reference factor in each animal to correct for variations in body water ^2H enrichment. The fraction of newly divided progenitor cells was calculated as the ratio of EM1 in purine deoxyribose from progenitor cell DNA to the corresponding EM1 from enrichment in bone marrow DNA.

[2] = test system: microglia; settings: mice
From the text: The proliferation of microglial cells is an early event in the activation process in animal models of neuroinflammation. Microglial activation is thought to contribute to the pathology of many CNS neuro-inflammatory and neurodegenerative disorders.

[3] = test system: GP8.3 cells; test: ionizing radiation damage to rat brain vasculature endothelial cells; assay type: cell-based
Experimental: Cells were cultured in α-MEM/Ham's F10, 10% FBS, 50 IU/mL penicillin, 50 μg/mL streptomycin, […] L-glutamine, and 250 μg/mL Geneticin and maintained in a humidified atmosphere containing 5% CO2 at 37° C. Intracellular reactive oxygen species (ROS) generation was measured in GP8.3 cells using 2′7′ dichlorodihydrofluorescein diacetate (DCFH-DA). Cells were incubated with 20 μM DCFH-DA in phosphate buffered saline (PBS) for 30 min prior to irradiation. The fluorescence intensity was measured at excitation wavelength 485 nm and emission wavelength 530 nm using a Bio-Tek FL500 microplate fluorescence reader. Western blot analysis: GP8.3 cells were collected following treatment and protein was separated by polyacrylamide gel electrophoresis (PAGE) on a 12% gel. Primary goat anti-ICAM-1 and mouse anti-β-actin were used. The secondary antibody was horse radish peroxidase (HRP)-conjugated secondary antibodies. Northern blot analysis: Total RNA was isolated using Tri-ZOL reagent. cDNA probes were labeled with α32P-dCTP by the random primer extension method. The cDNA of rat ICAM-1 was synthesized. Cell viability was determined using a modified 3-(4,5-Dimethylthiazol-2-yl)-2,5-Diphenyltetrazolium Bromide (MTT) assay. Briefly, 5,000 cells/well were plated in 24-well plates and incubated overnight. […] At the end of the follow-up period, cells were incubated with MTT in PBS for 4 h. Cell lysis detergent (20% SDS and 50% dimethylformamide, pH 4.7, in PBS) was then added and the plates incubated overnight at 37° C. A 100 μl aliquot of the soluble fraction was then transferred to 96-well microplates, and the absorbance at 570 nm measured using an Enzyme-Linked ImmunoSorbent Assay (ELISA) plate reader.

[4] = molecular target: T1, alpha7 nAChR (Rattus norvegicus, UniProt Q05941); test: displacement studies using 3H-MLA in rat hippocampal tissues; assay type: binding
T1 construct: displacement studies using ^3H-MLA in rat hippocampal tissues; from tissue; host or cells: rat hippocampus

[5] = test system: other nicotinic receptors, including alpha4beta2; test: binding affinity for other nicotinic receptors ([3H]-nicotine binding)
[6] = molecular target: alpha4beta2 (Homo sapiens, UniProt P17787+P43681); test: functional agonism at alpha4beta2
From the text: […]. […] […]

[7] = molecular target: T2, human alpha7 nicotinic receptors (Homo sapiens, UniProt P36544); test: electrophysiology functional assay in Xenopus laevis oocytes; assay type: cell-based
T2 construct: expressed in transfected cells; host or cells: Xenopus laevis oocytes (transient expression)

[8] = test system: PC12 cells; test: neuroprotection against Abeta(1-42) in PC12 cells; assay type: cell-based, rat
From the text: It has been shown that nicotine-induced complex formation between the alpha7 nicotinic acetylcholine receptor (nAChR) and the tyrosine-phosphorylated enzyme Janus kinase 2 (JAK2) results in subsequent activation of phosphatidylinositol-3-kinase (PI-3-K) and Akt. Nicotine interaction with the alpha7 nAChR inhibits Aβ (1-42) interaction with the same receptor, and Aβ (1-42)-induced apoptosis is prevented through nicotine-induced activation of JAK2. These effects can be shown by measuring markers of cytotoxicity, including the cleavage of the nuclear protein poly(ADP-ribose) polymerase (PARP), the induction of caspase 3, or cell viability.
PC12, rat pheochromocytoma cells, were maintained in proliferative growth phase in Dulbecco's modified Eagle's medium supplemented with 10% horse serum, 5% fetal calf serum, and antibiotics (penicillin/streptomycin). Apoptosis was determined by assessing the cleavage of the DNA-repairing enzyme PARP using a Western blot assay. […] Caspase 3 enzyme activity was determined with a fluorogenic substrate for caspase-3 in crude PC12 cell extracts. […] The substrate emits a blue fluorescence when excited at a wavelength of 360 nm. When cleaved from the peptide by the caspase 3 enzyme activity in the cell lysate, free 7-amino-4-methyl Coumarin is released and can be detected by its yellow/green emission at 460 nm. […]

T1 sequence (Q05941 23-502): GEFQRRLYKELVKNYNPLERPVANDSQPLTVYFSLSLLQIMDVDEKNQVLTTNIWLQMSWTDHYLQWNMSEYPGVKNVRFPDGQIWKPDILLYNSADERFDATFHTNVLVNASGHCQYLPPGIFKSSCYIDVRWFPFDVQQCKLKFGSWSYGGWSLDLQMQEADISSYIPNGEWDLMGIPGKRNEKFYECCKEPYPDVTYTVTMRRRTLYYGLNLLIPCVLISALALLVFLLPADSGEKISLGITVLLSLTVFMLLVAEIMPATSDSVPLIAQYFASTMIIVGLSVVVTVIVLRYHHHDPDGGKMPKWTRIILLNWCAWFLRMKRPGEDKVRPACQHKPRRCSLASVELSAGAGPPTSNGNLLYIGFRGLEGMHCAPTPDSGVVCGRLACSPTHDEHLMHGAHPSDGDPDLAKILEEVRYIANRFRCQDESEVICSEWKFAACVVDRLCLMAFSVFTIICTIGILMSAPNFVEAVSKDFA
Sequence of alpha4beta2 (P43681 29-627 limits assumed): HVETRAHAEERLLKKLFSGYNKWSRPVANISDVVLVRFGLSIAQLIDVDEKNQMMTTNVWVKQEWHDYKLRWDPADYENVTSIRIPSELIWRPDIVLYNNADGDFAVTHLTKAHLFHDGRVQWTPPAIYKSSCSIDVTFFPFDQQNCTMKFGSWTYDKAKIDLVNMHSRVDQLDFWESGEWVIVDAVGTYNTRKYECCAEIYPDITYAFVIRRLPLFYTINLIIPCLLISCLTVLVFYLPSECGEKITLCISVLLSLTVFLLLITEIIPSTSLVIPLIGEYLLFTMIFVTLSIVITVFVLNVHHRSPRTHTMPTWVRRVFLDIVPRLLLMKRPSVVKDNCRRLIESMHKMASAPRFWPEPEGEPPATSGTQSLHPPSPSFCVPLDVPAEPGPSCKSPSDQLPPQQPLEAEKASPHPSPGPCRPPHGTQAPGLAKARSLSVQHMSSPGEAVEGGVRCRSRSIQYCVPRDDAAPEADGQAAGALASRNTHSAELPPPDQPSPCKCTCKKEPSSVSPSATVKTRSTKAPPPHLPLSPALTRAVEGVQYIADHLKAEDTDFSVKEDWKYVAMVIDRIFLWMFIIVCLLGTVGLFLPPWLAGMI
Sequence of alpha4beta2 (P17787 26-502): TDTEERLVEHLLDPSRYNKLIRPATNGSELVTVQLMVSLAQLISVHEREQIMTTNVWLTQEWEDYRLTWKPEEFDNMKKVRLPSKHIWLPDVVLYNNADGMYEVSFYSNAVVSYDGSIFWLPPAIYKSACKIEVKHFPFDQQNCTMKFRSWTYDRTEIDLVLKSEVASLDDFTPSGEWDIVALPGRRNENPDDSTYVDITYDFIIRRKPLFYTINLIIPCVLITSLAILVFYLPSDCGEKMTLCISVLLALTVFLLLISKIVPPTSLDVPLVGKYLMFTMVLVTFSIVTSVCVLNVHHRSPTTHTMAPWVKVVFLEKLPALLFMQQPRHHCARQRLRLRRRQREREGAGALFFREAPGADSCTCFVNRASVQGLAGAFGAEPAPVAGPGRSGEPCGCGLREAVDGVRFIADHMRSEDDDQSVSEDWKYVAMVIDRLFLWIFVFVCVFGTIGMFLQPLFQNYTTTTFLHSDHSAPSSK
T2 sequence (P36544 23-502): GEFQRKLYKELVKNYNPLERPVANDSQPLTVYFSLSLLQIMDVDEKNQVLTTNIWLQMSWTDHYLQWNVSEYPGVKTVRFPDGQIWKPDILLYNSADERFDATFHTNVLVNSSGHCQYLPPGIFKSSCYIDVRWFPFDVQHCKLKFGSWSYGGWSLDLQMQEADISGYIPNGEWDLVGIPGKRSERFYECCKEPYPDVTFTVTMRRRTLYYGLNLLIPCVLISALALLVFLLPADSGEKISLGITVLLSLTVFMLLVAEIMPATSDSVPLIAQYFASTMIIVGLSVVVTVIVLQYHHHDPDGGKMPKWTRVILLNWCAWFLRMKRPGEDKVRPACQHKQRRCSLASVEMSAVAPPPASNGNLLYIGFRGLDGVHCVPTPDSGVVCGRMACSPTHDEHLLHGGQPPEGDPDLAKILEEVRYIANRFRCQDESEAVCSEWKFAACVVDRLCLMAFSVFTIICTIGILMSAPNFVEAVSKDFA

CNCCC(Oc1ccc(C(F)(F)F)cc1)c1ccccc1 (centres unmarked) [fluoxetine, Fluoxetine, reference compound]
increase in proliferation of hippocampal progenitor cells ([1]; 10 mg/kg po, 3 weeks, positive control): 35%

Cc1ccc(C(=O)N[C@@H]2C3CCN(CC3)[C@H]2Cc2cccnc2)s1 [Compound A, 5-methyl-N-[(2S,3R)-2-(pyridin-3-ylmethyl)-1-azabicyclo[2.2.2]oct-3-yl]thiophene-2-carboxamide]
LPS-induced neuroinflammation (microglial proliferation) ([2]; 1 mg/kg p.o.): decreased LPS-induced neuroinflammation | radiation-induced up-regulation of ICAM1 mRNA and protein ([3]; pre-incubation (10 μM per FIG. 7)): ameliorated | radiation-induced up-regulation of ROS ([3]; pre-incubation (10 μM per FIG. 8)): abolished | radiation-induced up-regulation of IL-6 mRNA and protein ([3]; pre-incubation with 10 μM): abolished | magnitude of increase in proliferation of hippocampal progenitor cells ([1]; 0.1 mg/kg, 3 weeks): 36% | magnitude of increase in proliferation of hippocampal progenitor cells ([1]; 0.3 mg/kg, 3 weeks): 24% | magnitude of increase in proliferation of hippocampal progenitor cells ([1]; 1 mg/kg, 3 weeks): 30% | proliferation of progenitor cells in the hippocampus ([1]; repeat administration 0.1-1 mg/kg/day p.o.): increase the proliferation of progenitor cells

CN1CCCC1c1cccnc1 (centres unmarked) [Compound C, nicotine, reference compound]
affinity for alpha7 nAChR ([4]; displacement of [3H]-MLA): high affinity | binding to alpha4beta2 [5]: high affinity | LPS-induced neuroinflammation (microglial proliferation) ([2]; 0.1 mg/kg p.o.): decreased LPS-induced neuroinflammation | proliferation of progenitor cells in the hippocampus ([1]; repeat administration 1 mg/kg/day p.o.): increase the proliferation of progenitor cells

c1cncc(C2CCC3CCN2CC3)c1 (centres unmarked) [Compound B, 2-(3-pyridinyl)-1-azabicyclo[3.2.2]nonane]
Ki [4]: 1 to 2 nM | binding to alpha4beta2 [5]: binds to alpha4beta2 | functional agonism at alpha4beta2 [6]: not functionally agonistic | Emax [7]: > 50% | cell survival in PC-12 cells exposed to lethal amounts of Abeta(1-42) ([8]; FIG. 10): neuroprotective | neuroprotection against Aβ (1-42) via JAK2/PI-3K cascade (PARP cleavage) ([8]; PC12 cells): exerts neuroprotective effects

CNC1(C)C2CCC(C2)C1(C)C (centres unmarked) [mecamylamine, reference compound]
effect on the Compound A-induced changes (IL-6, ICAM-1, ROS) ([3]; antagonist with Compound A): reversed
